The test system of assay [1] is old DBA/2J mice. Put plainly: Reduction of intraocular pressure (IOP) after application to the eye, TONOLab tonometer. The assay is classed as in vivo. The note with it: for Intraocular Pressure Decrease: versus basal IOP; for Reduction of intraocular pressure: dose 100 μg. An excerpt:
The main risk factor in the glaucoma is represented by the high intraocular pressure (IOP). See for instance: Libby R. T. et al., Vis Neurosci. 2005 Sep.-Oct., 22(5):637-48 and Tomida I. et al., Br. J. Opthalmol. 2004 May, 88(5):708-13.
By using the animal model of old DBA/2J mice (see above) it has been evaluated the efficacy of the compound obtained in example 3.1 in reducing the IOP. As said, this compound has a good affinity towards the CB1 receptors in vitro (example 4) and a CB1 agonist action in vivo (example 5). The intraocular pressure has been determined by a TONOLab Tonometer (Tiolat Oy), as reported by M. E. Pease et al. in J. Glaucoma, 2006 December, 15(6):512-519. The compound was dispersed in the commercial emulsion Tocrisolve™, (Tocris), at a concentration of […] and applied to the eye of old DBA/2J mice (8-10 month age; basal IOP comprised between 19.0 and 22.5 mmHg). The applied emulsion volumes were such that the compound doses resulted, respectively, of 100 μg or 50 μg. WIN 55212-2 was dispersed in Tocrisolve™at the concentration of 5 mg/ml and was the reference cannabinoidergic compound. The determination of the ocular pressure was carried out every 30 minutes up to two hours starting from the administration. The obtained results (average of 6 measurements at each time for experimental groups of 8-10 animals for group/dose) are reported in Table 3. IOP decrease was expressed in percent with respect to the basal value.

For assay [2], the system named is mouse deferent vessel (vas deferens). The experiment in a line: Ex-vivo model: electrically induced contractions of the isolated deferent vessel (vas deferens). Also on record: species or system albino CD1 mice. To be noted: for Activity compared with the compounds of the invention: FIG. 2; for Inhibition of the contractions induced by the electric stimulus: concentrations lower than or equal to 1×10^−6 M. An excerpt:
The use of the isolated deferent vessel organ, as a highly sensitive basic system in an ex-vivo model for evaluating the activity of agonist CB1 compounds, has been described by Pertwee et al. in Br. J. Pharmacol., 105:980-4, 1992. This model has been used also to evaluate the properties of antagonist CB1 compounds and to distinguish antagonist CB1 derivatives from inverse agonist CB1 compounds (Rinaldi-Carmona et al., FEBS Lett., 350:240-4, 1994; Pertwee et al., Eur. J. Pharmacol., 456:99-106, 2002). […] This effect is correlated to the action on the prejunctional neuronal CB1 receptors with the consequent release inhibition, induced by electric stimuli, of contractile neurotransmitters (noradrenaline and ATP) (Schlicker and Kathmann, Trends Pharmacol. Sci., 22:565-72, 2001). The inhibition of the contractions induced by the electric stimulus on the deferent vessel in the presence of agonist (or partial agonist) CB1 compounds are expressed as % of contraction inhibition. Said % contraction inhibition is calculated by the ratio between the contraction amplitude determined in the presence of a given concentration of the compound and that detected in its absence (basal value). The curve of the “% of contraction inhibition” as a function of the logarithm of the concentration of agonist (or partial agonist) CB1 compounds, is sigmoidal. The use of the model for the evaluation of antagonist CB1 compounds is based on the evaluation of their efficacy in inhibiting the action of the deferent vessel of agonist (or partial agonist) CB1 compounds. The inhibition is expressed by a shifting towards the right of the curves % of inhibition of contractions/logarithm of the concentration of the agonist CB1 compound, with increasing the concentration of the antagonist CB1 compound.
As reported in the literature, the experimentation has been carried out by using albino CD1 mice weighing 30-40 grams. The mice deferent vessel was recovered and transferred into an instrument for separated organs supplied by the Firm Ugo Basile (Comerio, Italy). The initial tension was of 0.5 g. The procedure adopted is reported in Pertwee et al. in Br. J. Pharmacol., 110:1483-1490, 1993. In particular the procedure and instruments as described by S. Ruiu et al. in J.P.E.T., Vol. 306, 2003, 363-370, have been used.
In a subsequent experiment it was shown that the compound activity was antagonized by the antagonist CB1 compound N-piperidinyl-[8-chloro-1-(2,4-dichlorophenyl)-1,4,5,6-tetrahydrobenzo[6,7]cyclohepta[1,2-c]pyrazol-3-carboxamide], described by S. Ruiu et al. in J.P.E.T., Vol. 306, 2003, 363-370. The experiment was carried out by adding the antagonist (concentration in bath 1 nM) 20 minutes before the first addition of the compound of the invention.

For assay [3], the target named is T1, CB1 receptors (Mus musculus, UniProt P47746).
T1 construct: the complete brain (excluding the cerebellum) and the spleen were quickly dissected and kept in ice; from tissue; host or cells: mouse brain (excluding cerebellum), membrane preparation
The experiment in a line: biochemical. It is filed as binding. The method, then: (§1) The affinity of the synthesized compounds towards the CB1 and CB2 cannabinoidergic receptors was evaluated in vitro by radioreceptor binding studies using the method reported hereinunder.
(§2) The technique of the receptor binding allows to establish if, and with which affinity and specificity, a specific compound binds to a particular receptor. To evaluate the affinity of a specific compound to a particular receptor it is necessary to challenge in a particular tissue preparation wherein those specific receptors are present the compound to be tested with a radioactive labelled compound whose affinity for the same receptors is known. […] The amount of radioactivity present in the receptor-compound complex allows furthermore to estimate with great accuracy the amount of compound bound to the receptor. By said method it is therefore possible to establish quickly the affinity of a new compound towards a specific receptor and thus to determine its pharmacological activity. With the same experimental protocol it is possible to evaluate the affinity of the compound towards other receptors and thus establish its specificity degree toward said other receptors.
(§3) The food and water were ad libitum.
(§4) The procedure adopted, based on the use of the compound [^3H]-CP-55,940 (New England Nuclear, Boston, Mass., USA), requires the use of the mouse brain as biological tissue for the evaluation of the affinity towards the CB1 receptors and of the mouse spleen for the affinity assay for the CB2 receptors.
(§5) The animals were sacrificed by cervical dislocation and the complete brain (excluding the cerebellum) and the spleen were quickly dissected and kept in ice.
(§6) The tissue was homogenized in 15 volumes (weight/volume) of TME buffer (50 Mm Tris, 1 mM EDTA and 3 mM MgCl2, pH 7.4) by an Ultra-Turrax and subsequently centrifuged for 10 minutes at 1086×g in a centrifuge refrigerated at 4° C. The recovered supernatant was centrifuged at 45,000×g for 30 minutes at 4° C. by using a Beckman SW41 rotor and the obtained pellet was resuspended in 50 volumes of TME.
(§7) The thus obtained membranes (50-80 μg of proteins) were incubated in the presence of 1 nM of [^3H]-CP55.940 for 1 hour at 30° C. in a final volume of 0.5 ml of TME buffer containing 5 mg/ml of bovine serum albumin (BSA). The non specific binding was measured in the presence of CP55.940 at a 1 μM concentration.
(§8) All the experiments were carried out in polypropylene test tubes pretreated with Sigma-Cote (Sigma Chemical Co. Ltd., Poole, UK) for reducing non specific binding.
(§9) In order to determine the competitive inhibition binding curves, eight different concentrations of each compound were used.
(§10) Incubation was stopped by addition of TME buffer (at 4° C.) containing 5 mg/ml of BSA, and subsequent filtration under vacuum by Whatman GFC filters pretreated with 0.5% of polyethylamine (PEI) and by using a filtering device (Brandell, Gaithersburg, Md., USA). The filters were washed 3 times with […] of Tris HCl buffer (pH 7.4, 4° C.) containing 1 mg/ml of BSA and separately placed in plastic vials containing 4 ml of scintillating liquid (Ultima Gold MV, Packard).
(§11) The radioactivity present in the filters was determined by a scintillator spectrophotometer (Tricarb® 2100, Packard, Meridien, USA).
(§12) Protein determination was carried out by the Bradford method by using the protocol and the reactants supplied by Bio-Rad (Milano, Italy).

Assay [4] deals with T2, CB2 receptors (Mus musculus, UniProt P47936).
T2 construct: the complete brain (excluding the cerebellum) and the spleen were quickly dissected and kept in ice; from tissue; host or cells: mouse spleen, membrane preparation
The experiment in a line: biochemical. It is filed as binding. Here is the method: as §1, §2, §3, §4, §5, §6, §7, §8, §9, §10, §11, §12

Assay [5] concerns patients. To be noted: cited from earlier work.
[6] abbreviates: 50 μg to the eye in Tocrisolve, 30 minutes.
The mark [7] stands for this setting: 50 μg to the eye in Tocrisolve, 60 minutes.
Setting [8] is: 50 μg to the eye in Tocrisolve, 90 minutes.
The mark [9] stands for this setting: 50 μg to the eye in Tocrisolve, 120 minutes.
[10] abbreviates: 100 μg to the eye in Tocrisolve, 30 minutes.
The mark [11] stands for this setting: 100 μg to the eye in Tocrisolve, 60 minutes.
The mark [12] stands for this setting: 100 μg to the eye in Tocrisolve, 90 minutes.
[13] abbreviates: 100 μg to the eye in Tocrisolve, 120 minutes.

T1 sequence (P47746 whole entry): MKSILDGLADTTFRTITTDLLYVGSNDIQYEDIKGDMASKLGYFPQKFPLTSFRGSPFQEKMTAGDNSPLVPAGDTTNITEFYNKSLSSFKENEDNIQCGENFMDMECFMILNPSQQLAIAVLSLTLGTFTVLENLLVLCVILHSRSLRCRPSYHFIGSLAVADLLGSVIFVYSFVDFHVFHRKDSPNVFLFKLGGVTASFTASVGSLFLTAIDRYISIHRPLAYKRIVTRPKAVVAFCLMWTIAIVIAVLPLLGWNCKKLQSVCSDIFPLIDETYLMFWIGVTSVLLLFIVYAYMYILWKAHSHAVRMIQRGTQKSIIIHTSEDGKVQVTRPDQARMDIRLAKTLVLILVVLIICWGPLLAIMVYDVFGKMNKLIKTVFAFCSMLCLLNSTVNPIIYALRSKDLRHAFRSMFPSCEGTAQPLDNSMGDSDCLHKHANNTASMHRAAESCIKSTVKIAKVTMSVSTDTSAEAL
T2 sequence (P47936 whole entry): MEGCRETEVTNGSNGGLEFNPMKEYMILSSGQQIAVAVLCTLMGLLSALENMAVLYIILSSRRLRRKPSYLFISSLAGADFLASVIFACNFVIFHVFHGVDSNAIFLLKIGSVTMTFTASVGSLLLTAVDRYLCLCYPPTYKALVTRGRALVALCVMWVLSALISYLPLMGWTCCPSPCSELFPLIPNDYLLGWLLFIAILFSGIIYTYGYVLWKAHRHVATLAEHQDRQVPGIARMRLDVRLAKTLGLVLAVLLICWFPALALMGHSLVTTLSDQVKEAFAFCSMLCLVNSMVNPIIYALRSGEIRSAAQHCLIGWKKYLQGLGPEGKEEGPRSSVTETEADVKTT

As to `Cc1ccc(Cn2nc(C(=O)NC3CC(C)CCC3C(C)C)c3c2-c2sc(C)cc2C3)cc1` (centres unmarked) [Compound (XC), N-menthyl-6-methyl-1-(4′-methylbenzyl)-1,4-dihydro-thieno[3′,2′:4,5]cyclopenta[1,2-c]pyrazol-3-carboxamide], the “Intraocular Pressure Decrease” value in assay [1] (setting [6]) is listed as 2.9%; in assay [1] (setting [7]), 2.2%; in assay [1] (setting [8]) it was 0.8%; in assay [1] (setting [9]), 1.5%; in assay [1] (setting [10]), 22.2%; in assay [1] (setting [11]), 22.4%. The “Intraocular Pressure Decrease” value in assay [1] (setting [12]) is recorded as 25.0%; in assay [1] (setting [13]) it was 16.7%. Moreover, the “Reduction of intraocular pressure” value in assay [1] is “able to significantly reduce the intraocular pressure”. Besides, the “Activity compared with the compounds of the invention” value in assay [2] is on record as “lower than that of the compounds of the invention”. Further, the “Inhibition of the contractions induced by the electric stimulus” value in assay [2] is given as “able to significantly inhibit the contractions”. Further, the Ki in assay [3] was determined as 33 ± 8.2 nM; in assay [4], 2.5 ± 0.3 nM.
Regarding `Cc1cc2c(s1)-c1c(c(C(=O)NC3C4(C)CCC(C4)C3(C)C)nn1-c1ccc(Cl)cc1Cl)C2` (centres unmarked) [Compound (XD), N-fenchyl-1-(2′,4′-dichlorophenyl)-6-methyl-1,4-dihydro-thieno[3′,2′:4,5]cyclopenta[1,2-c]pyrazol-3-carboxamide], the “Intraocular Pressure Decrease” value in assay [1] (setting [6]) is 3.0%; in assay [1] (setting [7]), 2.0%; in assay [1] (setting [8]) it was 0.5%; in assay [1] (setting [9]), 1.0%; in assay [1] (setting [10]), 16.6%; in assay [1] (setting [11]), 14.0%. The “Intraocular Pressure Decrease” value in assay [1] (setting [12]) is 11.2%; in assay [1] (setting [13]) it was 11.1%. The “Reduction of intraocular pressure” value in assay [1] is “able to significantly reduce the intraocular pressure”. Besides, the “Activity compared with the compounds of the invention” value in assay [2] was “lower than that of the compounds of the invention”. Further, the “Inhibition of the contractions induced by the electric stimulus” value in assay [2] is on record as “able to significantly inhibit the contractions”. Also, the Ki in assay [3] amounted to 43.3 ± 5.5 nM; in assay [4] it was 15 ± 3.2 nM.
For `Cc1cc2c(s1)-c1c(c(C(=O)NCC3CCC4CC3C4(C)C)nn1-c1ccc(F)cc1F)C2` (centres unmarked) [Example 3.2, N-myrtanyl-1-(2′,4′-difluorophenyl)-6-methyl-1,4-dihydrothieno[3′,2′:4,5]cyclopenta[1,2-c]pyrazol-3-carboxamide], the inhibitory constant (Ki) in assay [3] turned out to be 22.3 ± 25 nM; in assay [4], 5.8 ± 1 nM.
For `CC1(C)C2CCC(CNC(=O)c3nn(-c4ccc(Cl)cc4Cl)c4c3CCc3sc(-c5ccccc5)cc3-4)C1C2` (centres unmarked) [Example 3.6, N-myrtanyl-1-(2′,4′-dichlorophenyl)-7-phenyl-4,5-dihydro-1H-thieno[2,3-g]indazol-3-carboxamide], in that order: 86.4 ± 20 nM and 4350 ± 251 nM.
For `Cc1cc2c(s1)-c1c(c(C(=O)NCC3CCC4CC3C4(C)C)nn1-c1ccc(Cl)cc1Cl)C2` (centres unmarked) [Example 3.8, N-myrtanyl-1-(2′,4′-dichlorophenyl)-6-methyl-1,4-dihydro-thieno[3′,2′:4,5]cyclopenta[1,2-c]pyrazole-3-carboxamide], in that order: 400 ± 71 nM and 30.6 ± 7.2 nM.
As to `CC1(C)C2CCC(CNC(=O)c3nn(-c4ccc(F)cc4F)c4c3Cc3cc(Br)sc3-4)C1C2` (centres unmarked) [Example 3.12, N-myrtanyl-6-bromo-1-(2′,4′-difluorophenyl)-1,4-dihydro-thieno[3′,2′:4,5]cyclopenta[1,2-c]pyrazole-3-carboxamide], the Ki is 160 ± 2.5 nM in assay [3] and 9.3 ± 1.5 nM in assay [4].
For `Cc1cc2c(s1)-c1c(c(C(=O)CC3CCCCC3)nn1-c1ccc(Cl)cc1Cl)C2` [Example 3.15, 1-(2′,4′-dichlorophenyl)-6-methyl-3-(1-oxo-2-cyclohexyleth-1-yl)-1,4-dihydro-thieno[3′,2′:4,5]cyclopenta[1,2-c]pyrazole], in that order: 720 ± 139 nM and 5.4 ± 1.4 nM.
As to `Cc1c(C(=O)NN2CCCCC2)nn(-c2ccc(Cl)cc2Cl)c1-c1ccc(Cl)cc1` [SR141716A], in assay [5] (patients with metabolic syndrome and/or dyslipidemia), the “Reduction of weight and metabolic and/or cardiovascular risk factors” value was “effective in reducing both weight and metabolic and/or cardiovascular risk factors”. For the same molecule, the “Reduction of metabolic and/or cardiovascular risk factors” value in assay [5] (patients with type 2 diabetes) is reported as “effectiveness of Rimonabant in reducing metabolic and/or cardiovascular risk factors has been shown”.

One may read the Ki as the dissociation constant of the complex between target and ligand, obtained from inhibition or displacement. A lower Ki goes with higher affinity.

These data come from patent publication US20100215759A1 (priority 2009, published 2010).
